# Tests used:
# [1] = tested on: Akt; assay: Immunoblotting with anti-phospho-Akt-S473 antibody in OVCAR3 cells; assay type: cell-based, human; conditions: 3 hours, read-out: IC50, phosphorylation level of Akt (phospho-Akt-S473)
# Description: The cells were treated with API-1 at indicated concentration for 2 hours and subjected to immunoblotting analysis with anti-phospho-Akt-S473 antibodies (top panel).
# OVCAR3 cells, which express elevated levels of phosphor-Akt, were treated with different doses of API-1 for 3 hours.
# [2] = tested on: PKA; assay: Immunoblotting of PKA phosphorylation in OVCAR3 cells; assay type: cell-based, human
# Description: FIG. 2D is a graph showing the effect of API-1 on PKA, PKC and PDK kinase activity in living cells. OVCAR3 cells were treated with indicated concentration of API-1 for 1 hour. Cells were lysed and immunoblotted with indicated antibodies.
# [3] = tested on: OVCAR3; assay: Cell proliferation MTT assay, OVCAR3; assay type: cell-based, human; conditions: OVCAR3, 24 hours
# Description: (§1) The blots were reprobed with anti-actin antibody (bottom panel). FIGS. 4B and 4C are cell proliferation assays in which indicated cell lines were treated with different doses of API-1 for 24 hours and then analyzed with MTT assay. FIGS. 4D-4G show an apoptosis analysis in which cells were treated with API-1 and stained with annexin V and PI and analyzed by FACScan.
# (§2) In vitro kinase was performed as previously described (Jiang et al. 2000). Cell survival was assayed with MTT (Sigma). Apoptosis was detected with annexin V (BD Biosciences), which was performed according to manufacture's instruction. Recombinant Akt and PDK1 were purchased from Upstate Biotechnology Inc.
# (§3) Akt is a major pro-growth and pro-survival pathway.
# [4] = tested on: OVCA8; assay: Cell proliferation MTT assay, OVCA8; assay type: cell-based, human; conditions: OVCA8, 24 hours
# Description: as §1, §2, §3
# [5] = tested on: MDA-MB-468; assay: Cell proliferation MTT assay, MDA-MB-468; assay type: cell-based, human; conditions: MDA-MB-468, 24 hours
# Description: as §1, §2, §3
# [6] = tested on: MCF7; assay: Cell proliferation MTT assay, MCF7; assay type: cell-based, human; conditions: MCF7, 24 hours
# Description: as §1, §2, §3
# [7] = tested on: OVCAR5; assay: Cell proliferation MTT assay, OVCAR5; assay type: cell-based, human; conditions: OVCAR5, 24 hours
# Description: as §1, §2, §3
# [8] = tested on: MDA-MB-435s cells; assay: Cell proliferation MTT assay, MDA-MB-435s; assay type: cell-based, human; conditions: 24 hours
# Description: as §1, §2, §3
# [9] = tested on: OVACAR3; assay: Apoptosis analysis (annexin V and PI, FACScan), OVACAR3; assay type: cell-based, human
# Description: as §1, §2, §3
# [10] = tested on: MDA-MB-468; assay: Apoptosis analysis (annexin V and PI, FACScan), MDA-MB-468; assay type: cell-based, human; conditions: MDA-MB-468, annexin V and PI
# Description: as §1, §2, §3
# [11] = tested on: OVCAR3 tumors; assay: Nude mouse tumor xenograft model, OVCAR3; assay type: in vivo, nude mice; conditions: 10 mg/kg/day i.p.
# Description: (§4) Tumor cells were subcutaneously injected into nude mice with low level of Akt cells on right side and elevated level of Akt cells on left side.
# [12] = tested on: PANC1 tumors; assay: Nude mouse tumor xenograft model, PANC1; assay type: in vivo, nude mice; conditions: 10 mg/kg/day i.p.
# Description: as §4
# [13] = Tolerability observations in xenograft mice; assay type: in vivo; conditions: 10 mg/kg/day, data not shown
# Description: Tumor cells were harvested, resuspended in PBS, and injected subcutaneous (s.c.) into the right and left flanks (2×10^6 cells/flank) of 8-week-old female nude mice as reported previously (Sun et al. 1999). When tumors reached about 100-150 mm^3, animals were randomized and dosed intraperitoneal (i.p.) with vehicle or drug daily. Control animals received dimethylsulfoxide (DMSO) (20%) vehicle and treated animals were injected with API-1 (10 mg/kg/day) in 20% DMSO.
# Because API-1 inhibits Akt signaling and induces apoptosis and cell growth arrest in cancer cells with elevated levels of Akt (FIGS. 4A-4G), it was reasoned that the growth of tumors with elevated levels of Akt should be more sensitive to API-1 than that of tumors with low levels of Akt in nude mice. To this end, Akt-overexpressing cells (OVCAR3 and PANC-1) were s.c. implanted into the left flank, and those cell lines that express low levels of Akt (OVCAR5 and COLO357) were s.c. implanted into the right flank of mice. When the tumors reached an average size of about 100-150 mm^3, the animals were randomized and treated i.p. with either vehicle or API-1 (10 mg/kg/day). As illustrated in FIGS. 5A-5J, OVCAR3 and PANC1 tumors treated with vehicle control continued to grow. API-1 inhibited OVCAR3 and PANC1 tumor growth by 70% and 50%, respectively (FIGS. 5C-5F and 5G-5J). In contrast, API-1 had little effect on the growth of OVCAR5 and COLO357 cells in nude mice (FIGS. 5A-5J). At dose 10 mg/kg/day, API-1 had no effects on blood glucose level, body weight, activity and food intake of mice (data not shown).
# [14] = tested on: Akt; assay: Immunoblotting of Akt phosphorylation in treated tumor specimens; assay type: in vivo, nude mice; conditions: 10 mg/kg/day
# Description: Tumor cells were subcutaneously injected into nude mice with low level of Akt cells on right side and elevated level of Akt cells on left side. […] API-1 treated and untreated tumor specimens were lysed and immunoblotted with indicated antibodies.
# [15] = target: T1, Akt (Homo sapiens, UniProt P31749); assay: IGF-1 induced plasma membrane translocation of Akt in Myc-AKT1 transfected HeLa cells; assay type: cell-based; conditions: Myc-AKT1, 30 min prior to IGF1 for 15 minutes
# T1 construct: expressed in transfected cells; host or cells: HeLa
# Description: HeLa cells were transfected on coverslips with Myc-AKT1, serum-starved overnight and then treated with (FIG. 6C) or without (FIG. 6B) AKT-SI1 for 30 min prior to stimulation with IGF1 for 15 minutes. Following fixation, cells were immuno-stained with the anti-Myc monoclonal antibody, followed by a FITC-conjugated secondary antibody to reveal the presence of the epitope-tagged protein in the cytosol or membrane (FIG. 6B). Cells without treatment with AKT-SI1 and IGF1 were used as control (FIG. 6A).
# [16] = tested on: Akt downstream targets; assay: Phosphorylation of Akt downstream targets (FIG. 3C); assay type: cell-based
# [17] = target: mTORC1 (Homo sapiens, UniProt P42345); assay: Interference with mTORC1 complex (FIG. 3D)
# [18] = target: mTORC2 (Homo sapiens, UniProt P42345); assay: Interference with mTORC2 complex (FIG. 3D)
# [19] = target: T2, wild-type Myc-AKT1 (Homo sapiens, UniProt P31749); conditions: wild-type Myc-AKT1 transfected HEK 293 cells
# [20] = target: T3, constitutively active Myc-AKT1-E17K (Homo sapiens, UniProt P31749, E17K); conditions: Myc-AKT1-E17K transfected HEK 293 cells
# [21] = target: T3, constitutively active Myc-AKT1-E17K; assay: In vitro kinase assay of anti-Myc immunoprecipitates from Myc-AKT1-E17K transfected HEK293 cells; conditions: HEK293, Histone H2B substrate
# Description: (§5) Nevertheless, we compared their capability of inhibiting Akt. HEK293 cells were transfected with wild-type Myc-AKT1 (FIGS. 7B and 7C) and constitutively active Myc-AKT1-E17K (FIGS. 7D and 7E). Following 36 h incubation, cells were serum starved overnight. […] Immunoprecipitation was carried out with anti-Myc antibody and the immunoprecipitates were subjected to in vitro kinase assay using Histone H2B as substrate (top). […] The experiments were repeated three times.
# [22] = target: T2, wild-type Myc-AKT1; assay: In vitro kinase assay of anti-Myc immunoprecipitates from wild-type Myc-AKT1 transfected HEK293 cells; conditions: wild-type Myc-AKT1, HEK293, 30 min then EGF 15 min, Histone H2B substrate
# Description: as §5
# T3 sequence (P31749 whole entry E17K): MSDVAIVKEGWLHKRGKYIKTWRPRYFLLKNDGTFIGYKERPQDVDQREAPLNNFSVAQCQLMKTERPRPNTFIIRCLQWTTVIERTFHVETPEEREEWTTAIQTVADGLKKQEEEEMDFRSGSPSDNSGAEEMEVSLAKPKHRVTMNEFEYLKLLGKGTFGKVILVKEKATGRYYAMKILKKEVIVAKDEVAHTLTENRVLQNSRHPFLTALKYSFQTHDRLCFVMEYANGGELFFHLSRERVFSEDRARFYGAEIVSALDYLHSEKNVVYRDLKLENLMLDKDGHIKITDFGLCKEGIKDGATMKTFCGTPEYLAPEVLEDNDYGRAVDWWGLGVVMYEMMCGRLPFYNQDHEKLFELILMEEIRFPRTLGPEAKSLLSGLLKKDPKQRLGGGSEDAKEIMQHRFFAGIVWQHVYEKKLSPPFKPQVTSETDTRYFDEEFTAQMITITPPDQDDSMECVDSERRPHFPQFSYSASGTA
# T2 sequence (P31749 whole entry): as the sequence (P31749 whole entry E17K) above, with K17E counted along it
# T1 sequence (P31749 whole entry): as the sequence (P31749 whole entry E17K) above, with K17E counted along it
molecule,measurement,setting,value
NC(=O)c1cn(C2OC(CO)C(O)C2O)c2ncnc(N)c2c1=O (stereo not shown) [API-1],IC50,[1],~800 nM
same,phosphorylation levels of PKA,[2],not inhibited
same,inhibition of cell proliferation,[3],50-70%
same,inhibition of cell proliferation,[4],50-70%
same,inhibition of cell proliferation,[5],50-70%
same,inhibition of cell proliferation,[6],50-70%
same,inhibition of cell proliferation,[7],10-30%
same,inhibition of cell proliferation,[8],10-30%
same,induction of apoptosis,[9],9 fold
same,induction of apoptosis,[10],4.6 fold
same,inhibition of tumor growth,[11],70%
same,inhibition of tumor growth,[12],50%
same,activity,[13],no effects
same,blood glucose level,[13],no effects
same,body weight,[13],no effects
same,food intake,[13],no effects
same,reduction of phosphorylation levels of Akt in treated tumor samples,[14],about 70%
API-1,IGF-1 induced plasma membrane translocation of Akt,[15],inhibits
same,phosphorylation of Akt downstream targets,[16],inhibited
same,interference with mTORC1 complex,[17],did not interfere
same,interference with mTORC2 complex,[18],did not interfere
same,phospho-Akt levels (S473),[19],inhibit
same,phospho-Akt levels (S473),[20],inhibit
same,"inhibition of Akt kinase activity, compared with API-2/TCN",[21],more potent than API-2/TCN
same,"inhibition of Akt kinase activity, compared with API-2/TCN",[22],more potent than API-2/TCN

# Source: US9359347B2, “Inhibitors of Akt/PKB with anti-tumor activity” (University of South Florida, priority 2007, dated 2016)
